According to PubChem BioAssay AID1053171 (The Scripps Research Institute Molecular Screening Center, 2014):
The source made the active and inactive calls. The rule behind the calls is not given here.

Each compound was assayed against HIV-1 integrase (multimerization) (assay: HIV-1 integrase multimerization activators, dose response, counter-screen for LEDGF/p75 integration inhibitor project, biochemical, TR-FRET (AID 1053171)).

| SMILES | IC50 |
| --- | --- |
| O=C1C=C(O)c2[nH]c(=O)ccc2C1=O | 7.38 µM |
| CC1=NN(c2cccc(C(=O)O)c2)C(=O)/C1=C\C=C\c1ccco1 | 1.41 µM |
| COc1cc(C)cc(C(=O)O)c1C1=C(O)c2cccc(O)c2C(=O)C1=O | inactive |
| O=C1C=C(Nc2ccccc2O)c2ccccc2C1=O | inactive |
| O=c1cc2c(=O)oc3cc(O)c(O)oc3c2c(O)c1O | 0.354 µM |
| CN(C)[C@@H]1C(=O)C(C(N)=O)=C(O)[C@@]2(O)C(=O)C3=C(O)c4c(O)cccc4[C@@](C)(O)C3[C@H](O)C12 (some centres undefined) | inactive |
| CN(C)c1ccc(O)c2c1CC1CC3[C@@H](N(C)C)C(=O)C(C(N)=O)=C(O)[C@]3(O)C(=O)C1=C2O (some centres undefined) | 2.53 µM |
| O=C1/C(=C\c2ccc(O)c(O)c2)C(c2ccccc2)=NN1c1ccccc1 | 8.68 µM |
| C[n+]1c2cc(N)ccc2cc2ccc(N)cc21 | > 17.9 µM (inactive) |
| N/C(=N\N=C/c1ccc(-c2ccc(O)c(C(=O)O)c2)o1)N[N+](=O)[O-] | 4.54 µM |
| Cc1cc(C(=O)N/N=C/c2ccc(O)c([N+](=O)[O-])c2)c(C)n1-c1ccc(F)cc1 | inactive |
| O=C1c2cc(O)c(O)cc2OC(c2ccc(O)c(O)c2)C1O (centres undefined) | inactive |
| O=c1c(O)c(-c2ccc(O)c(O)c2)oc2cc(O)ccc12 | 1.45 µM |
| NC(=O)c1ccc(N=Cc2c(O)n(Cc3ccco3)c(=O)[nH]c2=O)cc1 | > 53.7 µM (inactive) |
| O=c1c(O)c(-c2ccc(O)c(O)c2)oc2cc(O)cc(O)c12 | 5.34 µM |
| Cc1c(CC(=O)N2CCN(C(=O)C3COc4ccccc4O3)CC2)c(=O)oc2c(O)c(O)ccc12 (centres undefined) | > 53.7 µM (inactive) |
| O=[N+]([O-])c1ccccc1NC(=S)N/N=C/c1ccc(O)c(O)c1 | inactive |
| O=[N+]([O-])c1cc(Br)c(O)c(C=Nc2ccc(N3CCOCC3)cc2)c1 | > 53.8 µM (inactive) |
| O=C1NC(=Nc2ccc(O)cc2)S/C1=C\C=C\c1ccco1 | inactive |
| O=C1CCCC(O)=C1N=Nc1ccc(C(=O)O)cc1 | 2.72 µM |
| NS(=O)(=O)c1ccc(N/N=C/c2ccc(O)c(O)c2O)c([N+](=O)[O-])c1 | 3.4 µM |
| O=C1C=C(O)c2c(O)cc(O)c(O)c2C1=O | 0.085 µM |
| CN(C)C1C(=O)C(C(N)=O)=C(O)C2(O)C(=O)C3=C(O)c4c(O)cccc4C(C)(O)C3C(O)C12 (centres undefined) | inactive |
| C=C1c2cccc(O)c2C(O)=C2C(=O)[C@]3(O)C(O)=C(C(N)=O)C(=O)[C@@H](N(C)C)[C@@H]3[C@@H](O)[C@H]12 | 8.53 µM |
